Patent publication US6960458B2, “Erythrose reductase, its cDNA and cell which the cDNA express” (Director of National Food Research Institute, Ministry of …, priority 2001, dated 2005)

B1: purified recombinant erythrose reductase type II: recombinant enzyme of SEQ. ID No. 4 expressed in E. coli, histidine Tag cleaved (protein)
chain: MSYKQYIPLNDGNKIPALGFGTWQAEPGQVGASVKNAVKAGYRHLDLAKVYQNQSEIGVALQELFDQGIVKREDLFITSKVWNNRHAPEHVEPALDETLKELGLSYLDLYLIHWPVAFKFTTPQELFPTEPDNKELAAIDDSIKLVDTWKAVVALKKTGKTKSVGVSNFTTDLVDLVEKASGERPAVNQIEAHPLLQQDELVAHHKSKNIVITAYSPLGNNVSGKPPLTQNPGIEATAKRLNHTPAAVLLAWGIQRGYSVLVKSVTPSRIESNYDQITLSPEEFQKVTDLIKEYGESRNNIPLNYKPSWPISVFGTSDEAKATHKINTNL
B2: purified recombinant erythrose reductase type III: recombinant enzyme of SEQ. ID No. 2 expressed in E. coli, histidine Tag cleaved (protein)
chain: B1 chain
B3: purified recombinant erythrose reductase type I: recombinant enzyme of SEQ. ID No. 6 expressed in E. coli, histidine Tag cleaved (protein)
chain: MSYNKNIPLNDGNSIPALGYGTWQAEPGQVGEGVKLAVKAGYRHLDLAKVYQNQTEIGQALKELFDEGVVKREDLFITSKLWNNRHAPEHVEPALDETLKELGLSYLDLYLIHWPVAFKFTTPDELLPADPTNKDLAYIDDSVKLSDTWKAVVALKKTGKTKSVGVSNFSTRLVDLVEEASGERPAVNQIEAHPLLQQDELVAHHKSKNIVITAYSPLGNNVAGKPPLTENPGIVDAAKRLNHTPAAVLIAWGIQRGYSVLVKSVTPSRIKSNFEQITLSDEEFQRVTNLIKEYGESRNNVPFNYKPSWSIDVFGTQYEAKATHKINA

Columns and labels:
[1] = system: recombinant erythrose reductase type III; test: Substrate specificity of purified recombinant erythrose reductase type III, NADPH consumption at 340 nm; assay type: biochemical, Trichosporonoides megachiliensis; conditions: rate with D-erythrose = 100%; 12 mM substrate, 0.2 mM NADPH, 50 mM phosphate buffer pH 6.5, 37° C., 5 minutes
Method: (§1) The substrate specificities of the purified recombinant erythrose reductases type III, type II, and type I were compared with that of the erythrose reductase heretofore reported (natural type: H. Ishizuka et al., Biosci. Biotech. Biochem., 56(6), 941-945, 1992).
(§2) In the presence of 50 mM of a phosphate buffer at pH 6.5, 12 mM of a substrate, and 0.2 mM of NADPH, 20 μL of an enzyme was acted (1 mL in total), and a change with time in optical absorbance at 340 nm was measured at 37° C. for 5 minutes.
(§3) With the reaction rate at which erythrose is reduced as a substrate as being 100%, relative values (%) of reaction rates for reducing various ketoses and aldoses are shown in Table 1.

[2] = system: natural type erythrose reductase type III; conditions: rate with D-erythrose = 100%; 12 mM substrate, 0.2 mM NADPH, 50 mM phosphate buffer pH 6.5, 37° C.; reported natural type (Ishizuka et al. 1992); cited from earlier work
[3] = system: recombinant erythrose reductase type II; test: Substrate specificity of purified recombinant erythrose reductase type II, NADPH consumption at 340 nm; assay type: biochemical, Trichosporonoides megachiliensis; conditions: rate with D-erythrose = 100%; 12 mM substrate, 0.2 mM NADPH, 50 mM phosphate buffer pH 6.5, 37° C., 5 minutes
Method: as §1, §2, §3

[4] = system: recombinant erythrose reductase type I; test: Substrate specificity of purified recombinant erythrose reductase type I, NADPH consumption at 340 nm; assay type: biochemical, Trichosporonoides megachiliensis; conditions: rate with D-erythrose = 100%; 12 mM substrate, 0.2 mM NADPH, 50 mM phosphate buffer pH 6.5, 37° C., 5 minutes
Method: as §1, §2, §3

[5] = IEF-PAGE (isoelectric focusing) of purified recombinant erythrose reductases; assay type: physicochemical; conditions: Phast Gel IEF pH 4-6.5, from mobility of band
Method: On the purified recombinant erythrose reductases, IEF-PAGE was carried out with a fully automatic electrophoresis system called Phast System (produced by Amersham Pharmacia Biotech), using a gel (trade name: Phast Gel (IEF pH 4-6.5), manufacturer: Amersham Pharmacia Biotech).
Electrophoresis was conducted using a pH gradient gel, and the separated proteins were stained.
From FIG. 9, the isoelectric point of each enzyme could be confirmed from the mobility of a band.

Molecule | Relative value (%) of reaction rate, Recombinant type Type III [1] [%] | Relative value (%) of reaction rate, Normal type Type III [2] [%] | Relative value (%) of reaction rate, Recombinant type Type II [3] [%] | Relative value (%) of reaction rate, Recombinant type Type I [4] [%] | isoelectric point (pI) [5]
O=C[C@@H](O)[C@H](O)[C@H](O)CO [D-arabinose] | 0.0 | 0.0 | 0.0 | 0.9 | –
O=C[C@H](O)[C@H](O)CO [D-erythrose] | 100.0 | 100.0 | 100.0 | 100.0 | –
O=C(CO)[C@@H](O)[C@H](O)[C@H](O)CO [D-fructose] | 0.0 | 0.0 | 0.0 | 0.0 | –
O=C[C@H](O)[C@@H](O)[C@@H](O)[C@H](O)CO [D-galactose] | 0.0 | 0.0 | 0.0 | 0.0 | –
O=C[C@H](O)[C@@H](O)[C@H](O)[C@H](O)CO [D-glucose] | 0.0 | 0.0 | 0.0 | 0.0 | –
O=C[C@H](O)[C@@H](O)[C@H](O)[C@H](O)C(=O)O [D-glucuronate] | 0.8 | 6.6 | 0.0 | 0.7 | –
O=C[C@H](O)CO [D-glyceraldehyde] | 98.2 | 66.0 | 107.8 | 102.0 | –
O=C[C@@H](O)[C@@H](O)[C@H](O)[C@H](O)CO [D-mannose] | 0.0 | 0.0 | 0.0 | 0.0 | –
O=C[C@H](O)[C@H](O)[C@H](O)CO [D-ribose] | 2.3 | 1.2 | 0.7 | 1.0 | –
O=C[C@H](O)[C@@H](O)[C@H](O)CO [D-xylose] | 4.5 | 1.2 | 2.4 | 3.2 | –
O=C(CO)[C@@H](O)[C@H](O)CO [D-xylulose] | 7.8 | 0.0 | 3.5 | 7.5 | –
O=C(CO)[C@@H](O)CO [L-erythrulose] | – | 38.0 | – | – | –
O=C(CO)[C@@H](O)[C@H](O)[C@@H](O)CO [L-sorbose] | 0.0 | 0.0 | 0.0 | 0.0 | –
OC[C@H]1O[C@H](O[C@H]2O[C@H](CO)[C@@H](O)[C@H](O)[C@H]2O)[C@H](O)[C@@H](O)[C@@H]1O [Trehalose] | 0.0 | 0.0 | 0.0 | 0.0 | –
O=Cc1ccc([N+](=O)[O-])cc1 [p-nitrobenzaldehyde] | 66.3 | 46.0 | 8.8 | 11.5 | –
B1 | – | – | – | – | 5.3
B2 | – | – | – | – | 5.8
B3 | – | – | – | – | 4.7
